Measured values reported in ChEMBL document CHEMBL5230096, “A comprehensive insight on the recent development of Cyclic Dependent Kinase inhibitors as anticancer agents” (Eur J Med Chem, 2020).

Columns and labels:
[1] = tested on: HeLa; test: Antiproliferative activity against human Hela cells assessed as reduction in cell viability by MTT assay; assay type: functional, cell-based
[2] = tested on: Human immunodeficiency virus 1; test: Antiviral activity against HIV1; assay type: functional, organism-based
[3] = target: T1, CDK2/Cyclin A2 (Homo sapiens) (UniProt P24941+P20248); test: Inhibition of CDK2/Cyclin A2 (unknown origin) at 10 uM incubated for 40 mins in presence of ATP by Kinase-Glo Plus luminescence kinase assay; assay type: protein-complex assay
[4] = target: T2, CDK2/Cyclin A2 (Homo sapiens, UniProt P24941); test: Inhibition of CDK2/Cyclin A2 (unknown origin) incubated for 40 mins in presence of ATP by Kinase-Glo Plus luminescence kinase assay; assay type: protein-complex assay
[5] = tested on: Panel NCI-60 (60 carcinoma cell lines); test: Antiproliferative activity against human Panel NCI-60 (60 carcinoma cell lines) assessed as reduction in cell viability at 10 uM; assay type: functional
[6] = target: T3, Cyclin-dependent kinase 2 (Homo sapiens, UniProt P24941)
Description: Inhibition of CDK2 (unknown origin)

[7] = target: T4, Protein cereblon/Cyclin-dependent kinase 9 (Homo sapiens) (UniProt P50750+Q96SW2); test: Protac activity at CRBN/CDK9 in human HCT-116 cells assessed as induction of CDK9 degradation at 10 uM incubated for 6 hrs by Western blot analysis; assay type: cell-based
T4 sequence (P50750 whole entry, looked up): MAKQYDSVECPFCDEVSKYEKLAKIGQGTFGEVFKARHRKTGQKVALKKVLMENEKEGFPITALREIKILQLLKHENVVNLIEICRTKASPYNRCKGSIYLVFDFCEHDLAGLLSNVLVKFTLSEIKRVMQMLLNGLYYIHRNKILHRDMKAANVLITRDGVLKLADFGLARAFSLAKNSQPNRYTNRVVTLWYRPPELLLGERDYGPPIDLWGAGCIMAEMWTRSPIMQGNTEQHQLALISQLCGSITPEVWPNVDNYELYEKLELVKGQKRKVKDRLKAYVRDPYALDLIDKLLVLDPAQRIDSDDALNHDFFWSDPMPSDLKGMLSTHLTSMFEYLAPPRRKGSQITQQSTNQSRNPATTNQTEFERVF
T4 sequence (Q96SW2 whole entry, looked up): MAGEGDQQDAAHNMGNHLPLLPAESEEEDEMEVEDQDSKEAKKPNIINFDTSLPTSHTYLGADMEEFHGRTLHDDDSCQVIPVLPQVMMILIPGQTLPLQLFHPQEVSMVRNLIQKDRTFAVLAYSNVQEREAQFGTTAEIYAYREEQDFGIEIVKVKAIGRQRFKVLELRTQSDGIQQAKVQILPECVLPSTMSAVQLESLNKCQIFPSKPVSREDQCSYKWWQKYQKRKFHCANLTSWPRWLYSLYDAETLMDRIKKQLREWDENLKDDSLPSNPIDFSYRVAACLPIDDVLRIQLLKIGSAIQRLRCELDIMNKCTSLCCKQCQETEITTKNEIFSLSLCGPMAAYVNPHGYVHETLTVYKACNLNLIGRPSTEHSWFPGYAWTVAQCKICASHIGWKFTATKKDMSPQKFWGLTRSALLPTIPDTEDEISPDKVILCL

[8] = target: T4, Protein cereblon/Cyclin-dependent kinase 9 (Homo sapiens); test: Protac activity at CRBN/CDK9 in human HCT-116 cells assessed as induction of CDK9 degradation at 20 uM incubated for 6 hrs by Western blot analysis; assay type: cell-based
[9] = target: T1, CDK2/Cyclin A2 (Homo sapiens); test: Inhibition of CDK2/Cyclin A2 (unknown origin) at 10 uM by Kinase-Glo Plus luminescence kinase assay; assay type: protein-complex assay
[10] = tested on: B16-F10; test: Antiproliferative activity against mouse B16-F10 cells assessed reduction in cell proliferation; assay type: functional, cell-based
[11] = tested on: MCF7; test: Antiproliferative activity against human MCF7 cells assessed reduction in cell proliferation; assay type: functional, cell-based
[12] = target: Histone deacetylase; test: Inhibition of HDAC (unknown origin); assay type: protein assay, Homo sapiens
[13] = tested on: MCF7; test: Anticancer activity against human MCF7 cells assessed as reduction in cell viability incubated for 48 hrs by MTT assay; assay type: functional, cell-based; details: MCF7, 48 h
[14] = tested on: HCT-116; test: Anticancer activity against human HCT-116 cells assessed as reduction in cell viability incubated for 48 hrs by MTT assay; assay type: functional, cell-based; details: HCT-116, 48 h
[15] = tested on: Panel NCI-60 (60 carcinoma cell lines); test: Antiproliferative activity against human Panel NCI-60 (60 carcinoma cell lines) cells assessed as inhibition of cell growth at 0.00001 M incubated for 48 hrs by sulforhodamine B assay; assay type: functional; design: scale not given: the % may be the effect or the level left; details: dose 10 µM
[16] = tested on: MCF7; test: Antiproliferative activity against human MCF7 cells assessed as reduction in cell proliferation incubated for 3 days by calcein AM staining based fluorescent analysis; assay type: functional; details: MCF7, 72 h
[17] = tested on: K562; test: Antiproliferative activity against human K562 cells assessed as reduction in cell proliferation incubated for 3 days by calcein AM staining based fluorescent analysis; assay type: functional; details: K562, 72 h
[18] = target: Cyclin-dependent kinase 2/cyclin E1 (Homo sapiens, UniProt P24941); test: Inhibition of CDK2/cyclin E1 (unknown origin) expressed in Sf9 cells using histone H1 as substrate in presence of ATP by microplate reader analysis
[19] = tested on: MCF7; test: Antiproliferative activity against human MCF7 cells assessed as reduction in cell proliferation incubated for 48 hrs by Sulfo-Rhodamine-B stain (SRB) assay; assay type: functional, cell-based; details: MCF7, 48 h
[20] = target: Cyclin-dependent kinase 2/cyclin E (Homo sapiens, UniProt P24941); test: Inhibition of CDK2/Cyclin E (unknown origin) expressed in baculovirus infected Sf9 cells using histone H1 as substrate in presence of gamma32P-ATP by scintillation counter analysis
[21] = target: T3, Cyclin-dependent kinase 2; test: Inhibition of human CDK2 using TMB as substrate preincubated for 210 mins followed by substrate addition and measured after 15 to 25 mins by spectrophotometric analysis
[22] = target: T2, CDK2/Cyclin A2; test: Inhibition of CDK2/cyclin A2 (unknown origin) using histone as substrate in presence of ATP by luminescent ADP detection assay; assay type: protein-complex assay
[23] = target: CDK9/cyclin T1 (Homo sapiens, UniProt P50750); test: Inhibition of CDK9/cyclin T1 (unknown origin) assessed as inhibition constant; assay type: protein-complex assay
Chain of CDK9/cyclin T1 (O60563 whole entry): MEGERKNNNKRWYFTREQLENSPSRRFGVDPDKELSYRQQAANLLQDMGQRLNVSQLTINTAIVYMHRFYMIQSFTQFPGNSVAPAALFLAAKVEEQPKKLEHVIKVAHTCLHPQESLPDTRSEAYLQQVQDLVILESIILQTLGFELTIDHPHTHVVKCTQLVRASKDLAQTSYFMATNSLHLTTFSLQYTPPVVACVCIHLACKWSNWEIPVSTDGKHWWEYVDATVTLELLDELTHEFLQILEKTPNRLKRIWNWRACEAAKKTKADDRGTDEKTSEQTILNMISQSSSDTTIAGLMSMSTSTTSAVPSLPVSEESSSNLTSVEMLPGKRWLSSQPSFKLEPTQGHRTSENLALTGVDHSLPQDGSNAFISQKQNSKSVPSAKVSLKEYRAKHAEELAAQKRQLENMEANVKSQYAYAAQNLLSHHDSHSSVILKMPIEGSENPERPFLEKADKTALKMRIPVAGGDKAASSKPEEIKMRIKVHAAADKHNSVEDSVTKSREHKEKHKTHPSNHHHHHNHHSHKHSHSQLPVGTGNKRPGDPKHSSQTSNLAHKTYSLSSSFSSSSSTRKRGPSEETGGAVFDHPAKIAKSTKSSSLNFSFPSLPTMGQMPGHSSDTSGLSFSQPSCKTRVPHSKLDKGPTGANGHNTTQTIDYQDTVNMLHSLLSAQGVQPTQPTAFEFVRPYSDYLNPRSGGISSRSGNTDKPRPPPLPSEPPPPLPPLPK
Chain of CDK9/cyclin T1 (P50750 whole entry): as the sequence (P50750 whole entry, looked up) above

[24] = tested on: A549; test: Antiproliferative activity against human A549 cells assessed as reduction in cell viability by MTT assay; assay type: functional, cell-based
[25] = tested on: Caco-2; test: Antiproliferative activity against human Caco-2 cells assessed as reduction in cell viability by MTT assay; assay type: functional, cell-based
[26] = tested on: MCF7; test: Antiproliferative activity against human MCF7 cells assessed as reduction in cell viability by MTT assay; assay type: functional, cell-based
[27] = tested on: HepG2; test: Antiproliferative activity against human HepG2 cells assessed as reduction in cell viability by MTT assay; assay type: functional, cell-based

CCOC(=O)C1=C(Cn2cc(COc3ccccc3C3NC(=O)NC(CCl)=C3C(=O)OCC)nn2)NC(=O)NC1c1ccccc1F (stereo unspecified)
IC50 [1]: 18 µM

O=C1CC(=O)N(c2ccc(S(=O)(=O)Nc3ncccn3)cc2)C(=S)N1C(=O)c1ccccc1
IC50 [2]: 3.1 µM

O=C(NCCc1ccccc1)c1cnn2c(-c3ccc(Cl)cc3)nc(NCCc3ccccc3)nc12
inhibition [3]: 82%
IC50 [4]: 1850 nM
inhibition at 10 µM [5]: 33.3%

CC(=O)N1C(=O)C(C(=O)c2ccc(F)cc2)C(=O)N(c2ccc(S(=O)(=O)Nc3nccs3)cc2)C1=S (stereo unspecified)
IC50 [2]: 3.2 µM

C[C@@H](CO)Nc1nc(N)c(N=O)c(OCC2CCCCC2)n1
IC50 [6]: 160 nM

O=C1CCC(N2C(=O)c3cccc(OCCCCCOc4ccc(CC(=O)Nc5cc(C6CCC6)[nH]n5)cc4)c3C2=O)C(=O)N1 (stereo unspecified)
Activity [7]: 56%
Activity [8]: 65%

Cc1cc(C)nc(NS(=O)(=O)c2ccc(N/C=C3\C(=O)NN=C3Nc3ccccc3)cc2)n1
inhibition [9]: 40%

O=C(CCCn1cc(CNC2CCCCC2)c(-c2ccccc2)n1)NO
IC50 [10]: 3.9 µM
IC50 [11]: 1120 nM
IC50 [12]: 2.95 µM
IC50 [6]: 4630 nM

Nc1ccc(-c2nc3ncccc3[nH]2)cc1
IC50 [13]: 710 nM
IC50 [14]: 3.06 µM

COc1ccc(-n2c(-c3ccccc3)c(-c3ccccc3)c3c(SCC(=O)N/N=C\c4ccccc4[N+](=O)[O-])ncnc32)cc1
Activity [15]: <50%

O=C(c1ccccc1)N1C(=O)C(C2C(=O)N(C(=O)c3ccccc3)C(=S)N(c3ccc(F)cc3)C2=O)C(=O)N(c2ccc(F)cc2)C1=S (stereo unspecified)
IC50 [6]: 5200 nM
IC50 [2]: 2.7 µM

CCCCCSc1nc(OC(=O)c2ccco2)c2cn[nH]c2n1
IC50 [16]: 18.9 µM
IC50 [17]: 19.8 µM
IC50 [18]: 21.2 µM

NS(=O)(=O)c1ccc(S(=O)(=O)Nc2cccc3c(Cl)c[nH]c23)cc1
IC50 [19]: 36.3 µM

Cc1ccc(S(=O)(=O)Nc2ccc(-c3ccnc(Nc4ccc(S(=O)(=O)Nc5cc(C)no5)cc4)c3C#N)cc2)cc1
IC50 [19]: 20.4 µM

Clc1ccccc1Nc1nc(SCCc2ccccc2)nc2[nH]ncc12
IC50 [16]: 19.2 µM
IC50 [17]: 19.9 µM
IC50 [18]: 7.8 µM

C[C@@H](CO)Nc1nc(N)c(/[N+]([O-])=N/C#N)c(OCC2CCCCC2)n1
IC50 [6]: 300 nM

O=c1[nH]cc(-c2ccc(O)cc2)c2nccn12
IC50 [20]: 1300 nM

COc1ccccc1/C=C/C(=C(C#N)C#N)c1ccc(NS(=O)(=O)c2ccc(C)cc2)cc1
IC50 [21]: 2920 nM
IC50 [19]: 26.3 µM

Cc1ccc(-n2cc(-c3ccccc3)c3c(SCC(=O)N/N=C\c4ccc(N(C)C)cc4)ncnc32)cc1
Activity [15]: <50%

O=C(Nc1ccc(F)cc1)c1cnn(-c2cc(NCc3ccccc3)ncn2)c1
IC50 [22]: < 20 nM

CCCCCSc1nc(Nc2ccccc2Cl)c2cn[nH]c2n1
IC50 [16]: 19.2 µM
IC50 [17]: 19.9 µM
IC50 [18]: 5.1 µM

O=C1CC(=O)N(c2ccc(S(=O)(=O)Nc3nccs3)cc2)C(=S)N1C(=O)c1ccccc1
IC50 [2]: 4.5 µM

COc1ccc(C2CC(c3c(O)c4ccccc4oc3=O)=NN2c2ccccc2)cc1OC (stereo unspecified)
Ki [23]: 3.26 nM

O=[N+]([O-])c1cccc(Nc2nc(SCCc3ccccc3)nc3[nH]ncc23)c1
IC50 [16]: 19.2 µM
IC50 [17]: 19.9 µM
IC50 [18]: 8.7 µM

CCOC(=O)C1=C(C)n2nc(Nc3ccccc3)c(C#N)c2NC1c1ccc(OC)cc1 (stereo unspecified)
IC50 [24]: 29.9 µM
IC50 [25]: 25.2 µM
IC50 [26]: 10.1 µM
IC50 [27]: 17.1 µM

CCCCCSc1nc(OC(=O)CC(C)(C)C)c2cn[nH]c2n1
IC50 [16]: 18.9 µM
IC50 [17]: 19.8 µM
IC50 [18]: 16.9 µM

O=C1NN=C(Nc2ccccc2)/C1=C/Nc1ccc(O)cc1
IC50 [26]: 23.3 µM
inhibition [9]: 60%

CCOC(=O)C1=C(Cn2cc(COc3ccccc3C3NC(=O)NC(CCl)=C3C(=O)OCC)nn2)NC(=O)NC1c1ccc(O)c(OC)c1 (stereo unspecified)
IC50 [1]: 18 µM
